{
  "source": "patent US9884048B2",
  "about": "“ERK inhibitors” (Merck Sharp & Dohme Corp., priority 2014, dated 2018)",
  "data": [
    {"biological_target": "phosphorylated active hERK2 enzyme (Homo sapiens (Human), UniProt P28482)", "sequence (P28482 whole entry)": "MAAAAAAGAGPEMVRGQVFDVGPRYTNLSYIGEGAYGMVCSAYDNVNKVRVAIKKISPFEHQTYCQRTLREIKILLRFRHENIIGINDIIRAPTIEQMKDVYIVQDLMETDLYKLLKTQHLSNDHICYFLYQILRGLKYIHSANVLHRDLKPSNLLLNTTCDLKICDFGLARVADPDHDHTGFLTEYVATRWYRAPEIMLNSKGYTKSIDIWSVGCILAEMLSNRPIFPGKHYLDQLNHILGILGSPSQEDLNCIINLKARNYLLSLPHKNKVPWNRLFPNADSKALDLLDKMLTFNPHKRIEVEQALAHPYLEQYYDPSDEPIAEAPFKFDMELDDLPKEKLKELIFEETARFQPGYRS", "conditions": "read-out: ERK2 IC50; IMAP-FP assay; 0.5 nM hERK2, 30 μM ATP; 10 point titration, 3 μM starting concentration", "units": {"IC50": "nM"}, "values": [
      {"compound": "COC[C@H](NC(=O)Nc1cc2cnn(-c3ccnc(C)c3)c2cn1)c1ccccn1", "note": "[Example 209, 1-[(1R)-2-methoxy-1-pyridin-2-ylethyl]-3-[1-(2-methylpyridin-4-yl)-1H-pyrazolo[3,4-c]pyridin-5-yl]urea]", "IC50": 24.5},
      {"compound": "COC[C@@H](NC(=O)Nc1cc2cnn(-c3ccnc(C)c3)c2cn1)c1ccccn1", "note": "[Example 210, 1-[(1S)-2-methoxy-1-pyridin-2-ylethyl]-3-[1-(2-methylpyridin-4-yl)-1H-pyrazolo[3,4-c]pyridin-5-yl]urea]", "IC50": 745},
      {"compound": "Cc1cncc(-n2ncc3cc(NC(=O)N[C@H](C)c4ccccc4)ncc32)n1", "note": "[Example 211, 1-[1-(6-methylpyrazin-2-yl)-1H-pyrazolo[3,4-c]pyridin-5-yl]-3-[(1R)-1-phenylethyl]urea]", "IC50": 549},
      {"compound": "Cc1cnc(-n2ncc3cc(NC(=O)N[C@H](C)c4ccccc4)ncc32)cn1", "note": "[Example 212, 1-[1-(5-methylpyrazin-2-yl)-1H-pyrazolo[3,4-c]pyridin-5-yl]-3-[(1R)-1-phenylethyl]urea]", "IC50": 521},
      {"compound": "Cc1ccc(-n2ncc3cc(NC(=O)N[C@H](C)c4ccccc4)ncc32)nn1", "note": "[Example 213, 1-[1-(6-methylpyridazin-3-yl)-1H-pyrazolo[3,4-c]pyridin-5-yl]-3-[(1R)-1-phenylethyl]urea]", "IC50": 208},
      {"compound": "Cc1cc(-n2ncc3cc(NC(=O)NCc4ccc(F)c(Cl)c4)ncc32)ccn1", "note": "[Example 214, 1-(3-chloro-4-fluorobenzyl)-3-[1-(2-methylpyridin-4-yl)-1H-pyrazolo[3,4-c]pyridin-5-yl]urea]", "IC50": 4.05},
      {"compound": "Cc1cc(-n2ncc3cc(NC(=O)NCc4cccc(Cl)c4)ncc32)ccn1", "note": "[Example 215, 1-(3-chlorobenzyl)-3-[1-(2-methylpyridin-4-yl)-1H-pyrazolo[3,4-c]pyridin-5-yl]urea]", "IC50": 5.04},
      {"compound": "Cn1cc(-n2ncc3cc(NC(=O)NCc4cccc(Cl)c4)ncc32)cn1", "note": "[Example 216, 1-(3-chlorobenzyl)-3-[1-(1-methyl-1H-pyrazol-4-yl)-1H-pyrazolo[3,4-c]pyridin-5-yl]urea]", "IC50": 15.7},
      {"compound": "C[C@@H](NC(=O)Nc1cc2cnn(-c3cnn(C)c3)c2cn1)c1cccc(Cl)c1", "note": "[Example 217, 1-[(1R)-1-(3-chlorophenyl)ethyl]-3-[1-(1-methyl-1H-pyrazol-4-yl)-1H-pyrazolo[3,4-c]pyridin-5-yl]urea]", "IC50": 5.45},
      {"compound": "Cn1cc(-n2ncc3cc(NC(=O)NCc4ccc(F)c(Cl)c4)ncc32)cn1", "note": "[Example 218, 1-(3-chloro-4-fluorobenzyl)-3-[1-(1-methyl-1H-pyrazol-4-yl)-1H-pyrazolo[3,4-c]pyridin-5-yl]urea]", "IC50": 20.8},
      {"compound": "Cc1cc(-n2ncc3cc(NC(=O)N[C@H](C)c4ccc(F)c(Cl)c4)ncc32)ccn1", "note": "[Example 219, 1-[(1R)-1-(3-chloro-4-fluorophenyl)ethyl]-3-[1-(2-methylpyridin-4-yl)-1H-pyrazolo[3,4-c]pyridin-5-yl]urea]", "IC50": 2.85},
      {"compound": "Cc1cc(-n2ncc3cc(NC(=O)N[C@H](C)c4ccc(Cl)c(Cl)c4)ncc32)ccn1", "note": "[Example 220, 1-[(1R)-1-(3,4-dichlorophenyl)ethyl]-3-[1-(2-methylpyridin-4-yl)-1H-pyrazolo[3,4-c]pyridin-5-yl]urea]", "IC50": 3.33},
      {"compound": "C[C@H](NC(=O)Nc1cc2cnn(-c3ccc(F)cc3)c2cn1)c1ccccn1", "note": "[Example 221, 1-[1-(4-fluorophenyl)-1H-pyrazolo[3,4-c]pyridin-5-yl]-3-[(1S)-1-pyridin-2-ylethyl]urea]", "IC50": 1790},
      {"compound": "C[C@@H](NC(=O)Nc1cc2cnn(-c3ccc(F)cc3)c2cn1)c1ccccn1", "note": "[Example 222, 1-[1-(4-fluorophenyl)-1H-pyrazolo[3,4-c]pyridin-5-yl]-3-[(1R)-1-pyridin-2-ylethyl]urea]", "IC50": 7.53},
      {"compound": "Cc1cc(-n2ncc3cc(NC(=O)N[C@H](C)c4ccc(F)cc4)ncc32)ccn1", "note": "[Example 223, (R)-1-(1-(4-fluorophenyl)ethyl)-3-(1-(2-methylpyridin-4-yl)-1H-pyrazolo[3,4-c]pyridin-5-yl)urea]", "IC50": 2.28},
      {"compound": "Cc1cc(-n2ncc3c(F)c(NC(=O)N[C@H](C)c4ccccc4)ncc32)ccn1", "note": "[Example 224, (R)-1-(4-Fluoro-1-(2-methylpyridin-4-yl)-1H-pyrazolo[3,4-c]pyridin-5-yl)-3-(1-phenylethyl)urea]", "IC50": 8.26},
      {"compound": "C[C@@H](NC(=O)Nc1cc2cnn(C)c2cn1)c1ccccc1", "note": "[Example 225, (R)-1-(1-methyl-1H-pyrazolo[3,4-c]pyridin-5-yl)-3-(1-phenylethyl)urea]", "IC50": 920},
      {"compound": "Cn1ncc2cc(NC(=O)N[C@@H](c3ccccc3)C(C)(C)O)nc(CO)c21", "note": "[Example 226, 1-[7-(hydroxymethyl)-1-methyl-1H-pyrazolo[3,4-c]pyridin-5-yl]-3-[(1S)-2-hydroxy-2-methyl-1-phenylpropyl]urea]", "IC50": 69.3},
      {"compound": "C[C@@H](O)[C@@H](NC(=O)Nc1cc2cn[nH]c2cn1)c1ccccc1", "note": "[Example 227, 1-((1S,2R)-2-Hydroxy-1-phenylpropyl)-3-(1H-pyrazolo[3,4-c]pyridin-5-yl)urea]", "IC50": 134},
      {"compound": "Cn1ncc2cc(NC(=O)N[C@@H](c3ccccc3)C(C)(C)O)ncc21", "note": "[Example 228, 1-[(1S)-2-hydroxy-2-methyl-1-phenylpropyl]-3-(1-methyl-1H-pyrazolo[3,4-c]pyridin-5-yl)urea]", "IC50": 36.9},
      {"compound": "C[C@@H](NC(=O)Nc1cc2cn[nH]c2c(CO)n1)c1ccccc1", "note": "[Example 229, (R)-1-(7-(hydroxymethyl)-1H-pyrazolo[3,4-c]pyridin-5-yl)-3-(1-phenylethyl)urea]", "IC50": 41},
      {"compound": "CC(C)(O)[C@@H](NC(=O)Nc1cc2cn[nH]c2cn1)c1ccccc1", "note": "[Example 230, (S)-1-(2-hydroxy-2-methyl-1-phenylpropyl)-3-(1H-pyrazolo[3,4-c]pyridin-5-yl)urea]", "IC50": 70},
      {"compound": "CCNC(=O)n1ncc2cc(NC(=O)N[C@H](C)c3ccccc3)ncc21", "note": "[Example 231, N-ethyl-5-({[(1R)-1-phenylethyl]carbamoyl}amino)-1H-pyrazolo[3,4-c]pyridine-1-carboxamide]", "IC50": 64.1},
      {"compound": "C[C@@H](NC(=O)Nc1cc2cnn(C)c2cn1)c1ccc(F)cc1", "note": "[Example 232, 1-[(1R)-1-(4-fluorophenyl)ethyl]-3-(1-methyl-1H-pyrazolo[3,4-c]pyridin-5-yl)urea]", "IC50": 579},
      {"compound": "C[C@@H](NC(=O)Nc1cc2cnn(C3CCNC(=O)C3)c2cn1)c1ccc(F)cc1", "note": "(stereo partly drawn) [Example 233, 1-[(1R)-1-(4-fluorophenyl)ethyl]-3-[1-(2-oxopiperidin-4-yl)-1H-pyrazolo[3,4-c]pyridin-5-yl]urea]", "IC50": 1220},
      {"compound": "CC(C)(C)OC(=O)N1CCc2cnc(-n3ncc4cc(NC(=O)N[C@@H](c5ccc(F)cc5)C(C)(C)O)ncc43)nc2C1", "note": "[Example 234, tert-butyl 2-[5-({[(1S)-1-(4-fluorophenyl)-2-hydroxy-2-methylpropyl]carbamoyl}amino)-1H-pyrazolo[3,4-c]pyridin-1-yl]-5,8-dihydropyrido[3,4-d]pyrimidine-7(6H)-carboxylate]", "IC50": 1810},
      {"compound": "COCCCn1ncc2cc(NC(=O)N[C@H](C)c3ccccc3)ncc21", "note": "[Example 235, 1-[1-(3-methoxypropyl)-1H-pyrazolo[3,4-c]pyridin-5-yl]-3-[(1R)-1-phenylethyl]urea]", "IC50": 1520},
      {"compound": "Cn1ncc2cc(NC(=O)NC3CCCN(Cc4c(F)cccc4F)C3)ncc21", "note": "(stereo not shown) [Example 236, 1-[1-(2,6-difluorobenzyl)piperidin-3-yl]-3-(1-methyl-1H-pyrazolo[3,4-c]pyridin-5-yl)urea]", "IC50": 531},
      {"compound": "COC[C@@H](NC(=O)Nc1cc2cnn(C)c2cn1)c1ccccc1", "note": "[Example 237, 1-[(1S)-2-methoxy-1-phenylethyl]-3-(1-methyl-1H-pyrazolo[3,4-c]pyridin-5-yl)urea]", "IC50": 882},
      {"compound": "C[C@@H](NC(=O)Nc1cc2cnn(C3CCOCC3)c2cn1)c1ccccc1", "note": "[Example 238, 1-[(1R)-1-phenylethyl]-3-[1-(tetrahydro-2H-pyran-4-yl)-1H-pyrazolo[3,4-c]pyridin-5-yl]urea]", "IC50": 147},
      {"compound": "COC[C@@H](NC(=O)Nc1cc2cnn(C3CCNC(C)C3)c2cn1)c1ccccc1", "note": "(stereo partly drawn) [Example 239, 1-[(1S)-2-methoxy-1-phenylethyl]-3-[1-(2-methylpiperidin-4-yl)-1H-pyrazolo[3,4-c]pyridin-5-yl]urea]", "IC50": 2180},
      {"compound": "C[C@@H](NC(=O)Nc1cc2cnn(-c3ccc(F)cc3)c2c(CO)n1)c1ccccc1", "note": "[Example 240, 1-[1-(4-fluorophenyl)-7-(hydroxymethyl)-1H-pyrazolo[3,4-c]pyridin-5-yl]-3-[(1R)-1-phenylethyl]urea]", "IC50": 40.1},
      {"compound": "COCc1nc(NC(=O)N[C@H](C)c2ccccc2)cc2cnn(-c3ccc(F)cc3)c12", "note": "[Example 241, 1-[1-(4-fluorophenyl)-7-(methoxymethyl)-1H-pyrazolo[3,4-c]pyridin-5-yl]-3-[(1R)-1-phenylethyl]urea]", "IC50": 55.9},
      {"compound": "C[C@@H](NC(=O)Nc1cc2cnn(-c3ccc(F)cc3)c2c(CN2CCOCC2)n1)c1ccccc1", "note": "[Example 242, 1-[1-(4-fluorophenyl)-7-(morpholin-4-ylmethyl)-1H-pyrazolo[3,4-c]pyridin-5-yl]-3-[(1R)-1-phenylethyl]urea]", "IC50": 2240},
      {"compound": "C[C@@H](NC(=O)Nc1cc2cnn(-c3ccc(F)cc3)c2c(CN(C)C)n1)c1ccccc1", "note": "[Example 243, 1-{7-[(dimethylamino)methyl]-1-(4-fluorophenyl)-1H-pyrazolo[3,4-c]pyridin-5-yl}-3-[(1R)-1-phenylethyl]urea]", "IC50": 1580},
      {"compound": "C[C@@H](NC(=O)Nc1cc2cnn(-c3ccc(F)cc3)c2c(COCCN2CCOCC2)n1)c1ccccc1", "note": "[Example 244, 1-{1-(4-fluorophenyl)-7-[(2-morpholin-4-ylethoxy)methyl]-1H-pyrazolo[3,4-c]pyridin-5-y1}-3-[(1R)-1-phenylethyl]urea]", "IC50": 188},
      {"compound": "Cc1cc(-n2ncc3cc(NC(=O)N[C@H](C)c4ccccc4)nc(CN4CCOCC4)c32)ccn1", "note": "[Example 245, 1-[1-(2-methylpyridin-4-yl)-7-(morpholin-4-ylmethyl)-1H-pyrazolo[3,4-c]pyridin-5-yl]-3-[(1R)-1-phenylethyl]urea]", "IC50": 832}
    ]}
  ]
}
